Key:
[1] = Dissolution test, USP 27 Type II paddle apparatus; type: physicochemical; conditions: 900 ml 0.1 N HCl, 37° C., 50 rpm, equivalent to 10 mg active
Procedure: The dissolution media was 900 ml of 0.1 N HCl, and was de-aerated with helium for approximately 15 minutes before each dissolution test. In all cases where not otherwise specified, the equivalent to 10 mg of the active ingredient was added to each dissolution vessel.

[2] = Solubilization of ITZ by the carrier during hot-melt extrusion at 100° C. (DSC, SEM); conditions: extruded at 100° C., confirmed by SEM and DSC
Procedure: A Randcastle Microtruder RCP-0750 hot-melt extruder equipped with a 6 mm round die was operated at 15 RPM, 0.2-0.3 Drive Amps with an Extrusion Temperature of 100° C. to prepare the composition. All powders were blended in a v-shell blender prior to extrusion. Temperature zones were set as follows: zone 1: 90° C., zone 2: 95° C., zone 3: 100° C., die temperature 100° C. The powder blend was placed in a hopper that is located at the head of a vertical screw such that the material is flood fed by gravity. The residence time of the material in the extruder was approximately three minutes. The extrudate was sheared into approximately one foot sections after exiting the die and placed on an aluminum sheets and allowed to cool at ambient conditions.
The fine drug-containing particles and compositions containing them were analyzed by scanning electron microscopy using a Hitachi S-4500 scanning electron microscope. Samples were coated with Au/Pd and an accelerating voltage of 5 kV was used.
Changes in the degree of crystallization of the fine drug-containing particles, either neat or dispersed within a hot-melt extruded composition, were determined and quantified by differential scanning calorimetry. A TA Instruments Model 2920 calorimeter was used to conduct the analyses.

## CCC(C)n1ncn(-c2ccc(N3CCN(c4ccc(OCC5COC(Cn6cncn6)(c6ccc(Cl)cc6Cl)O5)cc4)CC3)cc2)c1=O (centres unmarked) [bulk ITZ, itraconazole]
[1]
  ITZ drug release (dissolved) in 10 minutes (FIG. 12): less than 1%
[2]
  Solubility of itraconazole in PEO when extruded: substantially insoluble

From US9730894B2, “Stabilized HME composition with small drug particles” (BOARD OF REGENTS, THE UNIVERSITY OF TEXAS SYSTEM, priority 2004, dated 2017)
